One block for each compound: values may come before it.
Key:
[1] = Three-way crossover PK of ARV-110 API and ASD compositions, fed beagle dogs; details: in vivo, 50 mg API per dog oral, fed condition, geometric mean
Description: Blood samples were taken from each group of animals at the different time points after the drug administration. Plasma concentrations were analyzed by an LC-MS/MS method. The non-compartment model of software WinNonlin was used to calculate the pharmacokinetic parameters of each dog, Cmax, AUClast and AUCinf. The geometric averages of each parameters were used for comparisons of the in vivo absorption under different doing pretreatments.
The capsules were given at the dose of 50 mg API per dog for oral administration for each group in fed condition.

[2] = Table 1, footnote 1: Heimbach et al., J Pharm Sci 108 (2019); cited from earlier work
[3] = PK of ARV-110 API, i.v. injection vs oral capsule, fasted beagle dogs (absolute oral bioavailability); assay type: in vivo; details: for AUC(0-inf) / AUC(0-t) / Cmax: fasted condition, geometric mean
Description: The XRPD testing was performed on both API only (ARV-110) and the ASD formulation Batch No. P210803 using D2-Phasher (Bruker) equipment, and with the following parameters: generator, 30.0 kV/10.0 mA; detector, Lynxeye; wavelength, Cu Kal(1.54060); scan mode, continuous PSD fast; scan range, 4-40 degree; step Size, 0.01 degree; time/step, 0.5 s; sample stage rotation, 15 r/min. […] P210803 were in amorphous state. ARV-110 is still under developing in clinical stage. To measure the absolute oral bioavailability, the capsule filled with ARV-110 API was prepared only for oral administration in fasted condition. API was dissolved in DMA and Solutol mixed solution for injection. Three beagle dogs were tested in two dosing groups, one group was for oral, 50 mg dose per dog, and the other group for injection, 5 mg dose per dog. During the study, the dogs were allowed to drink water freely and were fasted for 12 hours before administration, all dogs were given food 4 hours after drug administration. Each dog was administered together with 50 ml water.
(§1) Blood samples were taken from each group of animals at the following time points: 0 h (before test drug administration), and 0.25, 0.5, 1, 1.5, 2, 4, 6, 8, 10, 24 h after the drug administration. ARV-110 plasma concentrations were analyzed by an LC-MS/MS method. The non-compartment model of software WinNonlin was used to calculate the pharmacokinetic parameters of each dog, Cmax, AUClast, and AUCinf. The geometric averages of each parameters were used for comparisons of the in vivo absorption under different dosing pretreatments.
The results shown in Table 3B include the geometric mean values as well as coefficient of variation (CV) of the pharmacokinetic parameters of the two dosing groups. […] The absolute bioavailability of ARV-110 is about 6.0%.

[4] = PK of ARV-110 API capsules, fasted vs high-fat fed beagle dogs; assay type: in vivo; details: API capsules 45 mg oral; for AUC(0-inf) / AUC(0-t) / Cmax: beagle, dog, in vivo, po, 45 mg, geometric mean
Description: Then, the capsule filled with ARV-110 API was prepared to compare the absorption advantage of our ASD formulation. Each capsule contained 45 mg ARV-110 API. The capsules were tested orally in three beagle dogs under two different dosing pretreatments (with or without high-fat food). During the study, the dogs were allowed to drink water freely and were fasted for 12 hours before administration, for the dosing pretreatment of the fasted condition, all dogs were given food 4 hours after drug administration. Each dog was administered together with 50 ml water. For the dosing pretreatment of the fed condition, all dogs were given a high-fat food 30 minutes prior to dosing.
as §1, with “and” for “and 0.25,”, “2, 3,” for “2,”, “4, 5,” for “4,”, “12, 24, 48, 72” for “24”, “AUClast” for “AUClast,”, “doing” for “dosing”
The results shown in Table 3C include the geometric mean values as well as coefficient of variation (CV) of the pharmacokinetic parameters of two dosing groups. […] The high-fat fed condition can enhance the oral absorption by about 6-folds compared to fasted condition.

[5] = cited from earlier work
[6] = PK of ARV-471 API, oral fasted and fed and i.v., beagle dogs; assay type: in vivo; details: for AUC(0-inf) / AUC(0-t) / Cmax: geometric mean
Description: (§2) To investigate the oral absorption of ARV-110, two-way crossover or three-way crossover designs were performed. Six Beagle dogs were classified into two or three groups. Each group was administered capsules of different formulations comprising the API or API only at various dose to compare the API absorption in such formulations and also any difference in API absorption in fasted or fed conditions. Each dog was administered with 50 mL water in total. To measure the absolute bioavailability, i.v. injection of a solution comprising API was also performed. The API solution for i.v. injection was prepared by dissolving in DMA and Solutol mixed solution.
(§3) In fasted condition, the dogs were allowed to drink water freely and were fasted for 12 hours before administration, and then were given food 4 hours after drug administration.
(§4) In fed condition, the dogs were fed with high-fat food 30 mins before administration, according to the FDA guidance entitled “Assessing the effects of food on drug in INDs and NDAs-Clinical pharmacology considerations” published on Feb. 26, 2019.
as §1, with “different” for “following”, “points” for “points: 0 h (before test drug administration), and 0.25, 0.5, 1, 1.5, 2, 4, 6, 8, 10, 24 h”, “Plasma” for “ARV-110 plasma”, “AUClast” for “AUClast,”, “doing” for “dosing”
(§5) To investigate the oral absorption of ARV-471, the same study design and procedures as described in Example 3 were performed.
A three-dog, two-way crossover study was performed to evaluate oral bioavailability of ARV-471 API in beagle dogs in fasted and fed condition. A three-dog study was performed to measure the ARV-471 API bioavailability after i.v. injection in fasted condition. Each capsule was filled with 60 mg of API powder and a 6 mg/vial API solution was prepared. One capsule or one vial of API solution were administered to each dog according to the design of the two studies. The results shown in Table 5B include the geometric mean values as well as coefficient of variation (CV) of the pharmacokinetic parameters of the three dosing groups. […] The absolute bioavailability of ARV-471 API is about 7%, and high-fat food can enhance the oral absorption by 2 times.

[7] = PK of ARV-471 API high dose, fasted vs fed beagle dogs; assay type: in vivo; details: for AUC(0-inf) / AUC(0-t) / Cmax: beagle, dog, plasma, po, 200 mg, API capsule 200 mg oral, geometric mean
Description: as §2, §3, §4
as §1, with “different” for “following”, “points” for “points: 0 h (before test drug administration), and 0.25, 0.5, 1, 1.5, 2, 4, 6, 8, 10, 24 h”, “Plasma” for “ARV-110 plasma”, “AUClast” for “AUClast,”, “doing” for “dosing”
as §5
A six-dog, two-way crossover study was performed to evaluate oral bioavailability of ARV-471 API dose escalation in beagle dogs in fasted and fed condition. There were two study groups, ARV-471 API orally administered in fasted condition and in fed condition, 200 mg of ARV-471 API was filled in each capsule. The capsules were given at the dose of 200 mg API per dog for oral administration for each group. The results shown in Table 5F include the geometric mean values as well as coefficient of variation (CV) of the pharmacokinetic parameters of two dosing groups.

[8] = Three-way crossover PK of ARV-471 API and ASD compositions, fed beagle dogs; assay type: in vivo; details: dog, plasma, 60 mg of API oral, fed condition, geometric mean
Description: as §2, §4
as §1, with “different” for “following”, “points” for “points: 0 h (before test drug administration), and 0.25, 0.5, 1, 1.5, 2, 4, 6, 8, 10, 24 h”, “Plasma” for “ARV-110 plasma”, “AUClast” for “AUClast,”, “doing” for “dosing”
as §5
A six-dog, three-way crossover study was performed to evaluate oral bioavailability of ARV-471 API and ASD compositions in beagle dogs in fed condition. There were three study groups, ARV471 API administered in fed condition ASD composition batch no. P220215-1 administered in fed condition, and ASD composition batch no. P220215-2 administered in fed condition, each containing 2 dogs. Capsules were filled with API powder, ASD composition from batch no. P220215-1 and ASD composition from batch no. P220215-2, respectively. […]

[9] = beagle, in vivo, iv, I.V. injection 5 mg per dog
[10] = beagle, in vivo, API oral capsule 50 mg per dog
[11] = beagle, dog, plasma, iv, 6 mg, i.v. 6 mg, fasted condition
[12] = beagle, dog, plasma, po, 60 mg, API capsule oral 60 mg, fasted condition
[13] = beagle, dog, plasma, po, 60 mg, API capsule oral 60 mg, fed condition

AUC(0-inf) [1]: 3000 ng·h/mL
AUC(0-t) [1]: 2570 ng·h/mL
Cmax [1]: 80.3 ng/mL
oral absorption (in words) ([3]; amorphous API, oral 50 mg, fasted dogs): poor absorption in fasted condition
bioavailability ([3]; beagle, dog, in vivo, 50 mg per dog, oral 50 mg vs i.v. 5 mg, fasted dogs): ~6%
AUC(0-inf) [3, 9]: 866 ng·h/mL
AUC(0-t) [3, 9]: 588 ng·h/mL
Cmax [3, 9]: 575 ng/mL
AUC(0-inf) [3, 10]: 279 ng·h/mL
AUC(0-t) [3, 10]: 162 ng·h/mL
Cmax [3, 10]: 10.7 ng/mL
enhancement of oral absorption, high-fat fed vs fasted condition [4]: about 6 folds
food effect (in words) ([4]; fed vs fasted): significant food effect
AUC(0-inf) ([4]; fasted condition): 278 ng·h/mL
AUC(0-t) ([4]; fasted condition): 218 ng·h/mL
Cmax ([4]; fasted condition): 7.6 ng/mL
AUC(0-inf) ([4]; fed condition (high-fat food)): 1550 ng·h/mL
AUC(0-t) ([4]; fed condition (high-fat food)): 1410 ng·h/mL
Cmax ([4]; fed condition (high-fat food)): 56.5 ng/mL
SMILES: N#Cc1ccc(O[C@H]2CC[C@H](NC(=O)c3ccc(N4CCC(CN5CCN(c6cc7c(cc6F)C(=O)N(C6CCC(=O)NC6=O)C7=O)CC5)CC4)nn3)CC2)cc1Cl (some centres unmarked) [ARV-110, N-((1r,4r)-4-(3-chloro-4-cyanophenoxy)cyclohexyl)-6-(4-((4-(2-(2,6-dioxopiperidin-3-yl)-6-fluoro-1,3-dioxoisoindolin-S-yl)piperazin-1-yl)methyl)piperidin-1-yl)pyridazine-3-carboxamide]
Calculated log P [2]: 5.8^1
dissolution in the aqueous solution (in words) [5]: very hard to dissolve in the aqueous solution

enhancement of oral absorption by high-fat food ([6]; API oral 60 mg, fed vs fasted): 2 times
oral absorption (in words) ([6]; amorphous API oral 60 mg, fasted dogs): poor absorption in fasted condition
AUC(0-inf) [6, 11]: 3220 ng·h/mL
AUC(0-t) [6, 11]: 3120 ng·h/mL
Cmax [6, 11]: 609 ng/mL
AUC(0-inf) [6, 12]: 2480 ng·h/mL
AUC(0-t) [6, 12]: 2360 ng·h/mL
Cmax [6, 12]: 200 ng/mL
AUC(0-inf) [6, 13]: 5230 ng·h/mL
AUC(0-t) [6, 13]: 5020 ng·h/mL
Cmax [6, 13]: 428 ng/mL
bioavailability ([6]; beagle, dog, plasma, oral 60 mg vs i.v. 6 mg, fasted dogs, read-out: absolute bioavailability): ~7%
enhancement of oral absorption by high-fat food vs fasted condition ([7]; API 200 mg oral): 2 times
AUC(0-inf) ([7]; fasted condition): 7650 ng·h/mL
AUC(0-t) ([7]; fasted condition): 7140 ng·h/mL
Cmax ([7]; fasted condition): 415 ng/mL
AUC(0-inf) ([7]; fed condition): 15600 ng·h/mL
AUC(0-t) ([7]; fed condition): 14700 ng·h/mL
Cmax ([7]; fed condition): 860 ng/mL
AUC(0-inf) [8]: 5840 ng·h/mL
AUC(0-t) [8]: 5600 ng·h/mL
Cmax [8]: 381 ng/mL
SMILES: O=C1CC[C@H](N2Cc3cc(N4CCN(CC5CCN(c6ccc([C@@H]7c8ccc(O)cc8CC[C@@H]7c7ccccc7)cc6)CC5)CC4)ccc3C2=O)C(=O)N1 [ARV-471, (3S)-3-[5-[4-[[1-[4-[(1R,2S)-6-hydroxy-2-phenyl-tetralin-1-yl]phenyl]-4-piperidyl]methyl]piperazin-1-yl]-1-oxo-isoindolin-2-yl]piperidine-2,6-dione]
dissolution in the aqueous solution (in words) [5]: very hard to dissolve in the aqueous solution

— patent US12350268B2, “Pharmaceutical compositions of PROTAC compounds and uses thereof” (Shenzhen Pharmacin Co., Ltd., priority 2022, dated 2025)
